Measured values reported in patent publication US20250098679A1, “HERBICIDAL PYRIDONE DERIVATIVES” (SYNGENTA CROP PROTECTION AG, priority 2021, published 2025).

What was measured:
Format in all cases: in vivo
Conditions in all cases: evaluated after 13 days
[1] = test system: Echinochloa crus-galli (ECHCG); experiment: Post-emergence Test, Echinochloa crus-galli (ECHCG); design: key to percentage damage caused to the plant, ECHCG (five-point scale): 5=81-100%, 4=61-80%, 3=41-60%, 2=21-40%, 1=0-20% damage
Method in brief: (§1)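 Scores are percentage plant damage on a 1–5 scale (1=0-20%, 2=21-40%, 3=41-60%, 4=61-80%, 5=81-100%), read 13 days after treatment. Pots received a spray at 1000 g/ha unless otherwise stated, formulated in acetone/water (50:50) containing 0.5% Tween 20.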

Setaria faberi (SETFA) [2] = experiment: Post-emergence Test, Setaria faberi (SETFA); design: key to percentage damage caused to the plant, SETFA (five-point scale): 5=81-100%, 4=61-80%, 3=41-60%, 2=21-40%, 1=0-20% damage
Method in brief: as §1

Setaria faberi (SETFA) [3] = experiment: Pre-emergence Test, Setaria faberi (SETFA)
Zea mays (ZEAMX) [4] = experiment: Post-emergence Test, Zea mays (ZEAMX); design: key to percentage damage caused to the plant, ZEAMX (five-point scale): 5=81-100%, 4=61-80%, 3=41-60%, 2=21-40%, 1=0-20% damage
Method in brief: as §1

[5] = test system: Ipomoea hederacea (IPOHE); experiment: Post-emergence Test, Ipomoea hederacea (IPOHE); design: key to percentage damage caused to the plant, IPOHE (five-point scale): 5=81-100%, 4=61-80%, 3=41-60%, 2=21-40%, 1=0-20% damage
Method in brief: as §1

[6] = test system: Ipomoea hederacea (IPOHE); experiment: Pre-emergence Test, Ipomoea hederacea (IPOHE)
Zea mays (ZEAMX) [7] = experiment: Pre-emergence Test, Zea mays (ZEAMX)
[8] = test system: Echinochloa crus-galli (ECHCG); experiment: Pre-emergence Test, Echinochloa crus-galli (ECHCG)
[9] = test system: Amaranthus palmeri (AMAPA); experiment: Pre-emergence Test, Amaranthus palmeri (AMAPA)
[10] = test system: Amaranthus retoflexus (AMARE); experiment: Post-emergence Test, Amaranthus retoflexus (AMARE); design: key to percentage damage caused to the plant, AMARE (five-point scale): 5=81-100%, 4=61-80%, 3=41-60%, 2=21-40%, 1=0-20% damage
Method in brief: as §1

[11] = test system: Amaranthus retoflexus (AMARE); experiment: Pre-emergence Test, Amaranthus retoflexus (AMARE)
[12] = test system: Amaranthus palmeri (AMAPA); experiment: Post-emergence Test, Amaranthus palmeri (AMAPA); design: key: 5=81-100%, 4=61-80%, 3=41-60%, 2=21-40%, 1=0-20% damage
Method in brief: as §1

Row | SMILES | percentage damage caused to the plant, ECHCG (five-point scale) ([1]; 250 g/Ha) | percentage damage caused to the plant, SETFA (five-point scale) (Setaria faberi (SETFA) [2]; 250 g/Ha) | Pre-emergence Test SETFA, percentage damage caused to the plant (five-point scale) (Setaria faberi (SETFA) [3]; 250 g/Ha (*)) | percentage damage caused to the plant, ZEAMX (five-point scale) (Zea mays (ZEAMX) [4]; 250 g/Ha) | percentage damage caused to the plant, IPOHE (five-point scale) ([5]; 250 g/Ha) | Pre-emergence Test IPOHE, percentage damage caused to the plant (five-point scale) ([6]; 250 g/Ha (*)) | percentage damage caused to the plant, AMARE (five-point scale) ([10]; 250 g/Ha) | percentage damage caused to the plant, AMAPA (five-point scale) ([12]; 250 g/Ha) | percentage damage caused to the plant, ECHCG (five-point scale) ([1]; 1000 g/ha) | percentage damage caused to the plant, SETFA (five-point scale) (Setaria faberi (SETFA) [2]; 1000 g/ha) | Pre-emergence Test SETFA, percentage damage caused to the plant (five-point scale) (Setaria faberi (SETFA) [3]; 1000 g/ha) | percentage damage caused to the plant, ZEAMX (five-point scale) (Zea mays (ZEAMX) [4]; 1000 g/ha) | percentage damage caused to the plant, IPOHE (five-point scale) ([5]; 1000 g/ha) | Pre-emergence Test IPOHE, percentage damage caused to the plant (five-point scale) ([6]; 1000 g/ha) | Pre-emergence Test ZEAMX, percentage damage caused to the plant (five-point scale) (Zea mays (ZEAMX) [7]; 1000 g/ha) | Pre-emergence Test ECHCG, percentage damage caused to the plant (five-point scale) ([8]; 1000 g/ha) | Pre-emergence Test AMAPA, percentage damage caused to the plant (five-point scale) ([9]; 1000 g/ha) | percentage damage caused to the plant, AMARE (five-point scale) ([10]; 1000 g/ha) | Pre-emergence Test AMARE, percentage damage caused to the plant (five-point scale) ([11]; 1000 g/ha) | percentage damage caused to the plant, AMAPA (five-point scale) ([12]; 1000 g/ha) | further results
1 | CCn1c(Cn2cncc2Cl)cc(=O)c(C(=O)O)c1-c1ccc(Cl)c(Cl)c1 [Compound 79, 6-[(5-chloroimidazol-1-yl)methyl]-2-(3,4-dichlorophenyl)-1-ethyl-4-oxo-pyridine-3-carboxylic acid] | 1 (1=0-20%) | 0 | 1 (1=0-20%) | 1 (1=0-20%) | 1 (1=0-20%) | 0 | 1 (1=0-20%) | 0 | – | – | – | – | – | – | – | – | – | – | – | – | Pre-emergence Test ZEAMX, percentage damage caused to the plant (five-point scale) (Zea mays (ZEAMX) [7]; 250 g/Ha (*)): 0; Pre-emergence Test ECHCG, percentage damage caused to the plant (five-point scale) ([8]; 250 g/Ha (*)): 1 (1=0-20%); Pre-emergence Test AMAPA, percentage damage caused to the plant (five-point scale) ([9]; 250 g/Ha (*)): 1 (1=0-20%); Pre-emergence Test AMARE, percentage damage caused to the plant (five-point scale) ([11]; 250 g/Ha (*)): 0
2 | CCn1c(Cn2nc(C(F)(F)F)cc2OCCOC)cc(=O)c(C(=O)O)c1-c1ccc(Cl)c(Cl)c1 [Compound 144, 2-(3,4-dichlorophenyl)-1-ethyl-6-[[5-(2-methoxyethoxy)-3-(trifluoromethyl)pyrazol-1-yl]methyl]-4-oxo-pyridine-3-carboxylic acid] | 2 (2=21-40%) | 2 (2=21-40%) | – | 0 | 1 (1=0-20%) | – | 1 (1=0-20%) | 0 | 3 (3=41-60%) | 3 (3=41-60%) | 5 (5=81-100%) | 3 (3=41-60%) | 2 (2=21-40%) | 1 (1=0-20%) | 0 | 1 (1=0-20%) | 0 | 2 (2=21-40%) | 0 | 1 (1=0-20%) | –
3 | CCn1c(Cn2ccc(C(F)(F)F)n2)cc(=O)c(C(=O)O)c1-c1ccc(Cl)c(F)c1 [Compound 30, 2-(4-chloro-3-fluoro-phenyl)-1-ethyl-4-oxo-6-[[3-(trifluoromethyl)pyrazol-1-yl]methyl]pyridine-3-carboxylic acid] | 3 (3=41-60%) | 4 (4=61-80%) | – | 3 (3=41-60%) | 4 (4=61-80%) | – | 1 (1=0-20%) | 0 | 4 (4=61-80%) | 5 (5=81-100%) | 5 (5=81-100%) | 4 (4=61-80%) | 2 (2=21-40%) | 4 (4=61-80%) | 5 (5=81-100%) | 5 (5=81-100%) | 1 (1=0-20%) | 4 (4=61-80%) | 0 | 2 (2=21-40%) | –
4 | CCn1c(Cn2nc(C(F)(F)F)cc2OC(F)F)cc(=O)c(C(=O)O)c1-c1ccc(Cl)c(Cl)c1 [Compound 151, 2-(3,4-dichlorophenyl)-6-[[5-(difluoromethoxy)-3-(trifluoromethyl)pyrazol-1-yl]methyl]-1-ethyl-4-oxo-pyridine-3-carboxylic acid] | 3 (3=41-60%) | 4 (4=61-80%) | 5 (5=81-100%) | 1 (1=0-20%) | 4 (4=61-80%) | 2 (2=21-40%) | 1 (1=0-20%) | 1 (1=0-20%) | 4 (4=61-80%) | 4 (4=61-80%) | 5 (5=81-100%) | 3 (3=41-60%) | 4 (4=61-80%) | 4 (4=61-80%) | 2 (2=21-40%) | 5 (5=81-100%) | 1 (1=0-20%) | 3 (3=41-60%) | 0 | 2 (2=21-40%) | Pre-emergence Test ZEAMX, percentage damage caused to the plant (five-point scale) (Zea mays (ZEAMX) [7]; 250 g/Ha (*)): 2 (2=21-40%); Pre-emergence Test ECHCG, percentage damage caused to the plant (five-point scale) ([8]; 250 g/Ha (*)): 5 (5=81-100%); Pre-emergence Test AMAPA, percentage damage caused to the plant (five-point scale) ([9]; 250 g/Ha (*)): 0; Pre-emergence Test AMARE, percentage damage caused to the plant (five-point scale) ([11]; 250 g/Ha (*)): 0
